In ChEMBL document CHEMBL1201862, “PubChem BioAssay data set” (2004):
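In this assay, cells in 96-well plates receive the compound at five concentrations for 48 hours. Endpoints are linearly interpolated between the surrounding concentrations. Here, GI50 denotes the concentration required for 50% inhibition of growth.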 Active and inactive are the calls of the source. Rule as the data show it: active = GI50 up to about 1.1 µM and inactive = higher.

Experiments:
Assay in all cases: DTP human tumour cell line panel, 48 h
LXFL 529 = system: LXFL 529
A549 = system: A549
KM12 = system: KM12
DMS-114 = system: DMS-114
SK-OV-3 = system: SK-OV-3
SNB-78 = system: SNB-78
U-251 = system: U-251
TK-10 = system: TK-10
M14 = system: M14
SK-MEL-2 = system: SK-MEL-2
XF498 = system: XF498
UACC-257 = system: UACC-257
HCT-116 = system: HCT-116
MOLT-4 = system: MOLT-4
HL-60 = system: HL-60
OVCAR-3 = system: OVCAR-3
SNB-19 = system: SNB-19
DLD-1 = system: DLD-1
RXF 393 = system: RXF 393
HOP-62 = system: HOP-62
OVCAR-5 = system: OVCAR-5
OVCAR-8 = system: OVCAR-8
786-0 = system: 786-0
SF-539 = system: SF-539
SF-268 = system: SF-268
SW-620 = system: SW-620
K562 = system: K562
UO-31 = system: UO-31
SN12C = system: SN12C
SR = system: SR
M19-MEL = system: M19-MEL
IGROV-1 = system: IGROV-1
UACC-62 = system: UACC-62
NCI-H522 = system: NCI-H522
KM-20L2 = system: KM-20L2
SF-295 = system: SF-295
RPMI-8226 = system: RPMI-8226
DMS-273 = system: DMS-273
NCI-H23 = system: NCI-H23
HOP-18 = system: HOP-18
NCI-H460 = system: NCI-H460
LOX IMVI = system: LOX IMVI
HOP-92 = system: HOP-92
HCC 2998 = system: HCC 2998
COLO 205 = system: COLO 205
HCT-15 = system: HCT-15
CCRF-CEM = system: CCRF-CEM
Malme-3M = system: Malme-3M
SK-MEL-5 = system: SK-MEL-5
SK-MEL-28 = system: SK-MEL-28
MCF7 = system: MCF7
NCI-H226 = system: NCI-H226
HT-29 = system: HT-29
MDA-N = system: MDA-N
RXF 631 = system: RXF 631
A498 = system: A498

With `COc1ccc(N(C)Sc2ccccc2)cc1` the GI50 (LXFL 529) was 45.3 µM (inactive), the GI50 (A549) was 39.4 µM (inactive) and the GI50 (KM12) was 56.6 µM (inactive). The GI50 (DMS-114) was 36.6 µM (inactive), the GI50 (SK-OV-3) was > 100 µM (inactive) and the GI50 (SNB-78) was > 100 µM (inactive). For the same molecule, the GI50 (U-251) was 32.8 µM (inactive), the GI50 (TK-10) was > 100 µM (inactive) and the GI50 (M14) was 52.5 µM (inactive). The GI50 (SK-MEL-2) was 65.5 µM (inactive), the GI50 (XF498) was 24 µM (inactive) and the GI50 (UACC-257) was 37 µM (inactive). For the same molecule, the GI50 (HCT-116) was 43.7 µM (inactive), the GI50 (MOLT-4) was 13.1 µM (inactive) and the GI50 (HL-60) was 15.1 µM (inactive). For the same molecule, the GI50 (OVCAR-3) was 52.4 µM (inactive), the GI50 (SNB-19) was 51.1 µM (inactive) and the GI50 (DLD-1) was 47.5 µM (inactive). For the same molecule, the GI50 (RXF 393) was 19.9 µM (inactive), the GI50 (HOP-62) was 95.5 µM (inactive) and the GI50 (OVCAR-5) was > 100 µM (inactive). For the same molecule, the GI50 (OVCAR-8) was 49.9 µM (inactive), the GI50 (786-0) was 16.9 µM (inactive) and the GI50 (SF-539) was 20.4 µM (inactive). The GI50 (SF-268) was 27.4 µM (inactive), the GI50 (SW-620) was 43.7 µM (inactive) and the GI50 (K562) was 41.4 µM (inactive). For the same molecule, the GI50 (UO-31) was 34.8 µM (inactive), the GI50 (SN12C) was 21.1 µM (inactive) and the GI50 (SR) was 43.7 µM (inactive). The GI50 (M19-MEL) was 69 µM (inactive), the GI50 (IGROV-1) was 19.9 µM (inactive) and the GI50 (UACC-62) was 34.7 µM (inactive). For the same molecule, the GI50 (NCI-H522) was 38.8 µM (inactive), the GI50 (KM-20L2) was 55.6 µM (inactive) and the GI50 (SF-295) was 55.1 µM (inactive). For the same molecule, the GI50 (RPMI-8226) was 36.1 µM (inactive), the GI50 (DMS-273) was 34.4 µM (inactive) and the GI50 (NCI-H23) was 83.4 µM (inactive). The GI50 (HOP-18) was 68.4 µM (inactive), the GI50 (NCI-H460) was 74.5 µM (inactive) and the GI50 (LOX IMVI) was 31.1 µM (inactive). The GI50 (HOP-92) was 79.8 µM (inactive), the GI50 (HCC 2998) was > 100 µM (inactive) and the GI50 (COLO 205) was > 100 µM (inactive). For the same molecule, the GI50 (HCT-15) was 38.1 µM, the GI50 (CCRF-CEM) was 6.38 µM (inactive) and the GI50 (Malme-3M) was > 100 µM (inactive). The GI50 (SK-MEL-5) was 47.4 µM (inactive) and the GI50 (SK-MEL-28) was 55.2 µM (inactive).

`COc1ccc(/C=C\c2cc(OC)c(OC)c(OC)c2)cc1OC(=O)C(N)CCC(=O)O` (centres undefined) was tested, and the GI50 (LXFL 529) was < 1e-05 µM (active), the GI50 (A549) was 0.000802 µM (active) and the GI50 (KM12) was 0.000131 µM (active). For the same molecule, the GI50 (DMS-114) was < 1e-05 µM (active), the GI50 (SNB-78) was < 1e-05 µM (active) and the GI50 (M14) was 0.00016 µM (active). For the same molecule, the GI50 (XF498) was < 1e-05 µM (active), the GI50 (UACC-257) was 0.000465 µM (active) and the GI50 (HCT-116) was 0.00015 µM (active). For the same molecule, the GI50 (MOLT-4) was 0.000135 µM (active), the GI50 (HL-60) was 7.5e-05 µM (active) and the GI50 (OVCAR-3) was 0.00011 µM (active). For the same molecule, the GI50 (DLD-1) was < 1e-05 µM (active), the GI50 (OVCAR-8) was 0.000143 µM (active) and the GI50 (786-0) was 0.000764 µM (active). The GI50 (SF-539) was 8.22e-05 µM (active), the GI50 (MCF7) was 0.00229 µM (active) and the GI50 (SW-620) was 0.00015 µM (active). The GI50 (NCI-H226) was 0.000632 µM (active), the GI50 (SR) was 0.000208 µM (active) and the GI50 (M19-MEL) was < 1e-05 µM (active). The GI50 (UACC-62) was 8.02e-05 µM (active), the GI50 (NCI-H522) was 8.51e-05 µM (active) and the GI50 (HT-29) was 1.43 µM (inactive). The GI50 (KM-20L2) was 0.00252 µM (active), the GI50 (RPMI-8226) was 0.0001 µM (active) and the GI50 (DMS-273) was < 1e-05 µM (active). The GI50 (NCI-H23) was 0.000114 µM (active), the GI50 (HOP-18) was 0.0764 µM (active) and the GI50 (NCI-H460) was 0.000133 µM (active). The GI50 (CCRF-CEM) was 0.000117 µM (active), the GI50 (Malme-3M) was 0.000105 µM (active) and the GI50 (SK-MEL-28) was 0.000188 µM (active). The GI50 (MDA-N) was 0.05 nM (active).

`Clc1ccc2c(c1)[nH]c1c2nc2ccccn21` was tested, and the GI50 (A549) was 25.1 µM (inactive), the GI50 (KM12) was 16.9 µM (inactive) and the GI50 (SK-OV-3) was 27.3 µM (inactive). For the same molecule, the GI50 (SNB-78) was 23.6 µM (inactive), the GI50 (TK-10) was 16.8 µM (inactive) and the GI50 (M14) was 20.2 µM (inactive). For the same molecule, the GI50 (UACC-257) was 16.7 µM (inactive), the GI50 (HCT-116) was 19.3 µM (inactive) and the GI50 (SNB-19) was 19.4 µM (inactive). For the same molecule, the GI50 (RXF 631) was 22.5 µM (inactive), the GI50 (786-0) was 18.9 µM (inactive) and the GI50 (SF-539) was 15.9 µM (inactive). For the same molecule, the GI50 (SF-268) was 19 µM (inactive), the GI50 (SW-620) was 24.8 µM (inactive) and the GI50 (UO-31) was 18.4 µM (inactive). For the same molecule, the GI50 (NCI-H226) was 25.4 µM (inactive), the GI50 (SR) was 17.1 µM (inactive) and the GI50 (IGROV-1) was 40.8 µM (inactive). The GI50 (NCI-H522) was 19.8 µM (inactive), the GI50 (HT-29) was 15.2 µM (inactive) and the GI50 (KM-20L2) was 14.7 µM (inactive). The GI50 (A498) was 24.2 µM (inactive), the GI50 (RPMI-8226) was 14.7 µM (inactive) and the GI50 (NCI-H23) was 21.6 µM (inactive). The GI50 (SK-MEL-28) was 17.4 µM (inactive).
